Consider nine compounds from US20240254134A1, “AGELASTATIN A DERIVATIVES AND RELATED METHODS” (ROMO, Daniel, priority 2021, published 2024).

Data set [1] relates to glycogen synthase kinase-3β. The note with it: cited from earlier work.
The test system of data set [2] is peptidyl transfer center (PTC) of the ribosome. The note with it: HeLa cells; cited from earlier work.
The target in data set [3] is osteopontin (OPN, encoded by SPP1) (Homo sapiens, UniProt P10451). To be noted: cited from earlier work.
A short description of data set [4]: Stability of 7-hydroxy AglA derivatives (1H NMR). The data set is classed as physicochemical.
Data set [5] in a line: Stability studies of pyrrole-derived carbinolamines 18a-18c (1H NMR). Type of data set: physicochemical. The note with it: in CD3OD. As for the experimental part: We synthesized pyrrole carboxylic amides 17a-c to study the equilibrium between the corresponding carbinolamines and pyrrolo ketones (FIG. 5). Reduction of 2-azidocyclopentanone and condensation with pyrrole-1H-carboxylic acid gave amide 17b. Upon treatment of ketone 17b with Et3N, cyclization gave the corresponding carbinolamine 18b in 73% yield (>19:1 dr, 600 MHz ^1H NMR). […] When resubjected to NEt3/CH2Cl2 at ambient temperature (22° C.) for 16 h, only a small amount of the ring-opened keto pyrrole 17b was generated leading to an equilibrium ratio of 11:1 (18b/17b) favoring the cyclized form as judged by ^1H NMR. […] In contrast, the 5-bromo pyrrole analog 17a, that most closely mimics the targeted 7-hydroxy AglA, disfavored the closed form 18a.
To a stirred solution of carbinolamine 18b (3.0 mg, 0.016 mmol, 1.0 equiv) in dichloromethane (0.32 mL) was added triethylamine (6.6 μl, 0.047 mmol, 3.0 equiv).
To a stirred solution of carbinolamine 18c (1.2 mg, 0.0044 mmol, 1.0 equiv) was added a solution of triethylamine in dichloromethane (0.1 mL, the solution was made by mixing 19 μl triethylamine and 1.0 mL dichloromethane).
To a 1.0 dram vial was charged 17a (2.7 mg, 0.01 mmol, 1.0 equiv) and a solution of triethylamine in dichloromethane (0.23 mL, […], 3.0 equiv. The solution was made by mixing 19 μl triethylamine and 1.0 mL dichloromethane).
In a 1.5 dram vial, carbinolamine 18b (2.6 mg, 0.014 mmol, 1.0 equiv) was dissolved in THF (0.14 mL) and MeOH (0.14 mL) and the mixture was cooled to 0° C. N-bromosuccinamide (2.5 mg, 0.0142 mmol, 1.05 equiv) was added and the reaction was allowed to warm up to ambient temperature (22° C.). After stirring for 4 h, TLC indicated there was no more starting material and the reaction mixture was concentrated and purified by column chromatography on silica (MeOH/CH2Cl2, 0 to 20%) to give a mixture of 18a/18c/17a (2.4 mg, 65%) in 1:0.6:0.44 ratio. This mixture was monitored by NMR to probe the stability of the 5-bromo derivative in CD3OD. […]

For a further data set, the system named is MCF7. The data set can be described thus: Cancer cell line cytotoxicity assay (MTS or resazurin, 72 h). The note with it: MCF7, 72 h incubation. Type of data set: cell-based. As to the method:
(§1) Cancer Cell Line Cytotoxicity Assays Cancer cell lines (MDA-MB-231, MCF7, Caco2, or U87) were plated on 96-well plates at 2,000 cells per well and incubated for 24 h at 37° C., 5% CO2. AglA and derivatives were dissolved in DMSO, diluted to the appropriate concentrations, and the compound solutions or equivalent concentration of solvent (vehicle) were added to the plate and incubated for 72 h at 37° C., 5% CO2. Following the manufacturer protocol, 20 μL of CellTiter 96® AQueous One Solution Cell Proliferation Assay (MTS, Promega), or CellTiter-Blue@ Cell Viability Assay (resazurin, Promega) was added. The plate was allowed to develop for 1-4 h at 37° C., 5% CO2 and evaluated at 490 nm on an AccuSkan Go (Fisher Scientific) or at 560 nm excitation and 590 nm emission on a VarioSkan Lux Multimode Microplate Reader (Fisher Scientific).

For a further data set, the system named is U87. The description is as above. The note with it: glioblastoma cell line U87, 72 h incubation. The data set is classed as cell-based. As to the method: as §1
The subject of the next data set is MDA-MB-231. The data set is described as above. The data set is classed as cell-based. The note with it: MDA-MB-231, 72 h incubation. As to the method: as §1
For the next data set, the system named is Caco2. The description is as above. Type of data set: cell-based. To be noted: Caco2, 72 h incubation. As to the method:
as §1

Assay in data set [6]: as above
To be noted: human. Type of data set: cell-based. As to the method:
as §1

In the next data set the test system is HeLa cells. To be noted: cited from earlier work.
Data set [7] concerns Cancer cell lines (MDA-MB-231, MCF7, Caco2, or U87). Put plainly: Cancer cell line cytotoxicity, span over all cell lines studied. To be noted: Homo sapiens; all cell lines studied except Caco-2; read-out: activity against all cell lines studied (span of values). Type of data set: cell-based. As to the method:
as §1

Read-outs that look alike come from different tables or passages of the source. A value given as a limit tells only on which side of the number the result lay.

glycogen synthase kinase-3β, sequence (P49841 whole entry): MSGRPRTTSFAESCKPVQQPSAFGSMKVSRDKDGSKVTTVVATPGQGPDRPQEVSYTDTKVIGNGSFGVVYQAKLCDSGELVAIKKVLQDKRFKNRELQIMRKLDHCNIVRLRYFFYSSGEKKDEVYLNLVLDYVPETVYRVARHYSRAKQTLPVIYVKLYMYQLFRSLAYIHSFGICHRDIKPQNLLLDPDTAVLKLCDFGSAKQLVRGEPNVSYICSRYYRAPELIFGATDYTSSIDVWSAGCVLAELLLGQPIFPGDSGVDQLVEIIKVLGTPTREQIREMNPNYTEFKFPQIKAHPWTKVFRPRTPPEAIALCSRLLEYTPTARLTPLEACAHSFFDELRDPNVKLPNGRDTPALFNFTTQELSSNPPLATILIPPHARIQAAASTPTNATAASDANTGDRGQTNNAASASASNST
osteopontin (OPN, encoded by SPP1), sequence (P10451 17-314, species assumed): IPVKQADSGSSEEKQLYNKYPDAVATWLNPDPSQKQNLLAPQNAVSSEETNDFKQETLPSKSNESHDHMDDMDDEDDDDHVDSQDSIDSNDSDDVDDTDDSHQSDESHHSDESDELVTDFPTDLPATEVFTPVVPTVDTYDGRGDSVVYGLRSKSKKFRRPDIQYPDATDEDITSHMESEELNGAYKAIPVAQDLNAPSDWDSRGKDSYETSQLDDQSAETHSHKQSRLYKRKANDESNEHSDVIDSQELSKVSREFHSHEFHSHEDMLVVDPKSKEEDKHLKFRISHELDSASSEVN

Agelastatin A [AglA]: the “inhibition of expression of glycogen synthase kinase-3β” value in data set [1] is recorded as “inhibits the expression”. Moreover, in [2], the “binding to the peptidyl transfer center of the ribosome” value is recorded as “binds to the peptidyl transfer center (PTC) of the ribosome”. Besides, in data set [3], the inhibition of osteopontin result is reported as “inhibition of osteopontin”.

Regarding 7-hydroxy AglA [7-OH AglA], the “stability (ring-closed carbinolamine vs ring opened ketopyrrole tautomer)” value is “instability” in data set [4] and “unstable” in [4] (listed as 7-hydroxy AglA).

Turning to `O=C1NC2CCCC2(O)n2c(Br)ccc21` (stereo not shown) [18a], the “stability of carbinolamine under neutral conditions” value (shortened to “stability of carbinolamine”) in data set [5] was “opened rapidly in CD3OD”.

Turning to `CO[C@@]12C[C@H]3OC(c4ccc(Br)[nH]4)=N[C@H]3[C@@H]1NC(=O)N2C` [26a], the “cytotoxicity EC50” value in the data set on MCF7, in the data set with U87, in the data set with MDA-MB-231 and in the data set with Caco2 was “no activity” throughout.

Consider `CN1C(=O)N[C@H]2[C@@H]3NC(=O)c4cccn4[C@]3(O)C[C@]21O` (racemic) [compound 24, 7-hydroxy-13-des-bromo AglA], for which the EC50 at 72 h in data set [6] (Caco2 cells, Caco2, 72 h incubation) is above 250 µM; in [6] (MCF7 cells, MCF7, 72 h incubation) it was above 250 µM; in data set [6] (MDA-MB-231 cells, MDA-MB-231, 72 h incubation) it was above 250 µM; in data set [6] (U87 glioblastoma cells, glioblastoma cell line U87, 72 h incubation), 171 ± 8 µM. Also, the “stability by 1H NMR” value in data set [4] (stored in CD3OD or DMSO-d6 at ambient temperature (22° C.) for 7 days) was “quite stable”.

Regarding `O=C1NC2CCCC2(O)n2cc(Br)cc21` (stereo not shown) [18c], the “stability of carbinolamine” value in [5] is recorded as “stable under neutral conditions”.

For the compound `O=C1NC2CCCC2(O)n2cccc21` (stereo not shown) [18b], the “stability of carbinolamine” value in data set [5] was “stable in CD3OD for several days”.

On to 13-des-bromo AglA, for which the “drop in potency compared to AglA” value in the data set with HeLa cells was around 500 X.

`CN1C(=O)N[C@H]2[C@@H]3NC(=O)c4ccc([N+](=O)[O-])n4[C@@H]3C[C@]21O` [compound 37, 13-nitro AglA]: in data set [7], the EC50 was in the range of 1.16 to 35.4 µM.
